Measurements reported in US6114517A, “Methods of modulating tumor necrosis factor α-induced expression of cell adhesion molecules” (Isis Pharmaceuticals Inc., priority 1998, dated 2000).

Columns and labels:
Format in all cases: cell-based, human
[1] = system: E-selectin; assay: TNF-α-induced E-selectin cell surface expression in HMVEC, flow cytometry; settings: for time of maximal inhibition of E-selectin induction: following antisense treatment
Description: (§1) Human dermal microvascular cells (HMVEC-d; Clonetics, San Diego, Calif.) were cultivated in endothelial basal media (EBM, Clonetics) supplemented with 10% fetal bovine serum (HyClone, Logan, Utah). Cells were grown in 100 mm petri dishes until 70-80% confluent, then washed with PBS and OPTI-MEM (Life Technologies, Inc., Gaithersburg, Md.). The cells were then incubated in the presence of OPTI-MEM and […] LIPOFECTIN (a 1:1 (w/w) liposome formulation of the cationic lipid N-[1-(2,3-dioleyloxy)propyl]-n,n,n-trimethylammonium chloride (DOTMA), and dioleoyl phosphotidylethanolamine (DOPE) in membrane filtered water (Life Technologies, Gaithersburg, Md.), per 100 nM of oligonucleotide followed by addition of oligonucleotide at the appropriate concentrations.
(§2) The effect of c-raf and Ha-ras antisense oligonucleotide treatment on the induction of E-selectin by TNF-α was examined. HMVEC cells were treated with either the c-raf or Ha-ras antisense compound under dose-response conditions or over time at a single dose level followed by stimulation of E-selectin expression by TNF-α for 5 hours. The cell surface expression of E-selectin was determined by flow cytometry analysis. Following oligonucleotide treatment, cells were detached from the plates and analyzed for surface expression of cell adhesion molecules using a Becton Dickinson (San Jose, Calif.) FACScan. TNF-α and FITC conjugated antibody for E-selectin were obtained from R & D Systems (Minneapolis, Minn.). PE-conjugated antibody for ICAM-1 was obtained from Pharmingen (San Diego, Calif.). VCAM-1 antibody was obtained from Santa Cruz Biotechnology, Santa Cruz, Calif. Cell surface expression was calculated using the mean value of fluorescence intensity using 3,000-5,000 cells stained with the appropriate antibody for each sample and time point. Results are expressed as percentage of control (cell surface expression induced by TNF-α in cells that were not treated with oligonucleotides) based upon mean fluorescence intensity.
The effects of c-raf, Ha-ras, and a E-selectin antisense oligonucleotide on TNF-α-induced E-selectin cell surface expression under kinetic conditions were examined. […] To test this, cells were treated, separately, with antisense oligonucleotides to E-selectin, ICAM-1 and VCAM-1 and allowed to recover prior to TNF-α treatment. […] E-selectin cell surface expression was measured by flow cytometry analysis after 5 hours of TNF-A treatment.

[2] = system: ICAM-1; assay: TNF-α-induced ICAM-1 cell surface expression in HMVEC, flow cytometry; settings: for maximal inhibition of induction of ICAM-1 by TNF-α: dose response
Description: as §1
as §2, with “intensity. Basal expression of E-selectin and VCAM-1 is undetectable in the absence of TNF-α whereas a low level of basal expression is detectable for ICAM-1.” for “intensity.”
(§3) TNF-α induction of ICAM-1 and VCAM-1 in cells treated with c-raf and Ha-ras antisense oligonucleotides was also examined to further define the roles of c-raf and Ha-ras in cytokine signaling. Oligonucleotides were tested, using flow cytometry analysis, as described in Example 4. Results are shown in Table 6 (ICAM-1) and Table 7 (VCAM-1).

[3] = system: VCAM-1; assay: TNF-α-induced VCAM-1 cell surface expression in HMVEC, flow cytometry; settings: for Maximum inhibition of induction of VCAM-1 by TNF-α: dose response
Description: as §1
as §2, with “intensity. Basal expression of E-selectin and VCAM-1 is undetectable in the absence of TNF-α whereas a low level of basal expression is detectable for ICAM-1.” for “intensity.”
as §3

[4] = system: E-selectin mRNA; assay: TNF-α-induced E-selectin mRNA, Northern blot; settings: 48 hrs recovery, TNF-α two to three hours before RNA analysis
Description: (§4) For determination of mRNA levels by Northern blot, total RNA was prepared from cells by the guanidinium isothiocyanate procedure or by the Qiagen RNAEASY method (Qiagen, Santa Clarita, Calif.) at the indicated times after initiation of oligonucleotide treatment. Northern blot analysis was performed as described in Current Protocols in Molecular Biology (Ausubel, F. M., et al., (eds), 1987, Greene Publishing Assoc. and Wiley Interscience, New York). A glyceraldehyde 3-phosphate dehydrogenase (G3PDH) probe was purchased from Clontech (Palo Alto, Calif., Catalog Number 9805-1). RNA was quantified and normalized to G3PDH mRNA levels using a Molecular Dynamic PHOSPHORIMAGER (Sunnyvale, Calif.).
(§5) Northern blot analysis was carried out to examine whether c-raf and Ha-ras antisense oligonucleotides inhibit the induction of cell adhesion molecules at the transcriptional level. Cells were treated with c-raf (ISIS 12854, SEQ ID NO. 2) or Ha-ras (ISIS 15168, SEQ ID NO. 4) antisense oligonucleotides and allowed to recover for 48 hrs. TNF-α was added two to three hours prior to RNA analysis and Northern blotting was performed with probes specific for E-selectin, ICAM-1, and VCAM-1. The probe for E-selectin was obtained by PCR amplification using primers directed to HUMELAM1A (Genbank Accession No. M24736; SEQ ID NO. 18).

[5] = system: ICAM-1 mRNA; assay: TNF-α-induced ICAM-1 mRNA, Northern blot; settings: 48 hrs recovery, TNF-α two to three hours before RNA analysis
Description: as §4, §5

[6] = system: VCAM-1 mRNA; assay: TNF-α-induced VCAM-1 mRNA, Northern blot; settings: 48 hrs recovery, TNF-α two to three hours before RNA analysis
Description: as §4, §5

[7] = 25 nM, TNF-α for 5 hours, % of control
[8] = 75 nM, TNF-α for 5 hours, % of control
[9] = 150 nM, TNF-α for 5 hours, % of control
[10] = time course, 12 h/20 h after oligonucleotide treatment, TNF-α 5 hours
[11] = time course, 48 h after oligonucleotide treatment, TNF-α 5 hours
[12] = time course, 72 h after oligonucleotide treatment, TNF-α 5 hours

Substance	% Cell Surface Expression (E-selectin) [1, 7] [%]	% Cell Surface Expression (E-selectin) [1, 8] [%]	% Cell Surface Expression (E-selectin) [1, 9] [%]	% Cell Surface Expression (E-selectin) [1, 10] [%]	% Cell Surface Expression (E-selectin) [1, 11] [%]	% Cell Surface Expression (E-selectin) [1, 12] [%]	% Cell Surface Expression (ICAM-1) ([2]; 20 nM) [%]	% Cell Surface Expression (ICAM-1) ([2]; 50 nM) [%]	% Cell Surface Expression (ICAM-1) ([2]; 100 nM) [%]	% Cell Surface Inhibition (ICAM-1) ([2]; 100 nM) [%]	% Cell Surface Expression (VCAM-1) ([3]; 20 nM) [%]	% Cell Surface Expression (VCAM-1) ([3]; 50 nM) [%]	% Cell Surface Inhibition (VCAM-1) ([3]; 50 nM) [%]	% Cell Surface Expression (VCAM-1) ([3]; 100 nM) [%]	% Cell Surface Inhibition (VCAM-1) ([3]; 100 nM) [%]	% mRNA Expression (E-selectin) [4] [%]	% mRNA Inhibition (E-selectin) [4] [%]	% mRNA Expression (ICAM-1) [5] [%]	% mRNA Expression (VCAM-1) [6] [%]	% Cell Surface Inhibition (E-selectin) ([1]; 25 nM, TNF-α for 5 hours) [%]	also measured
ToCoAsGsTsAsAsTsAsGsCsCsCoCoAoCoAoToGoG [ISIS 17552, reference compound]	134	116	116	113	116	111	102	100	98	2	111	97	3	85	15	92	8	101	111		effect on E-selectin induction ([1]; dose response, HMVEC): little to no effect
ToCoCoCoGoCsCsTsGsTsGsAsCsAsToGoCoAoToT [ISIS 12854]	37	26	23	58	23	24	80	62	57	43	46	37	63	28	72	22	78	78	35	63	% Cell Surface Inhibition (E-selectin) ([1]; 75 nM, TNF-α for 5 hours): 74%; % Cell Surface Inhibition (E-selectin) ([1]; 150 nM, TNF-α for 5 hours): 77%; Maximal inhibition of E-selectin induction ([1]; dose response, HMVEC): approximately 80%; time of maximal inhibition of E-selectin induction [1]: 48 h; % Cell Surface Inhibition (E-selectin) [1, 10]: 42%; % Cell Surface Inhibition (E-selectin) [1, 11]: 77%; % Cell Surface Inhibition (E-selectin) [1, 12]: 76%; % Cell Surface Inhibition (ICAM-1) ([2]; 20 nM): 20%; % Cell Surface Inhibition (ICAM-1) ([2]; 50 nM): 38%; maximal inhibition of induction of ICAM-1 by TNF-α [2]: greater than 40%; % Cell Surface Inhibition (VCAM-1) ([3]; 20 nM): 54%; Maximum inhibition of induction of VCAM-1 by TNF-α [3]: greater than 70%; % mRNA Inhibition (ICAM-1) [5]: 22%; % mRNA Inhibition (VCAM-1) [6]: 65%
ToCoCsGsTsCsAsTsCsGsCsTsCoCoToCoAoGoGoG [ISIS 15168]	72	47	41	87	42	42	81	62	54	46	70	51	49	44	56	13	87	73	29	28	% Cell Surface Inhibition (E-selectin) ([1]; 75 nM, TNF-α for 5 hours): 53%; % Cell Surface Inhibition (E-selectin) ([1]; 150 nM, TNF-α for 5 hours): 59%; Maximal inhibition of E-selectin induction ([1]; dose response, HMVEC): ~60%; time of maximal inhibition of E-selectin induction [1]: 48 h; % Cell Surface Inhibition (E-selectin) [1, 10]: 13%; % Cell Surface Inhibition (E-selectin) [1, 11]: 58%; % Cell Surface Inhibition (E-selectin) [1, 12]: 58%; % Cell Surface Inhibition (ICAM-1) ([2]; 20 nM): 19%; % Cell Surface Inhibition (ICAM-1) ([2]; 50 nM): 38%; maximal inhibition of induction of ICAM-1 by TNF-α [2]: greater than 40%; % Cell Surface Inhibition (VCAM-1) ([3]; 20 nM): 30%; Maximum inhibition of induction of VCAM-1 by TNF-α [3]: greater than 50%; % mRNA Inhibition (ICAM-1) [5]: 27%; % mRNA Inhibition (VCAM-1) [6]: 71%
